Measurements published in patent publication EP2236157A1 (PharmaNeuroBoost N.V., priority 2009, dated 2010).

Experiments:
[1] = test system: patients with major depression; assay: semi-naturalistic open label study of combo pipamperone-citalopram in major depression (Example 2); assay type: in vivo
Source text: This semi-naturalistic open label study investigated the efficacy and tolerability of the combo pipamperone - citalopram in the treatment of patients with major depression.
• Design: Semi-naturalistic i.e. inclusion of every 'natural' patient in an outpatient practice but without concomitant use of mood enhancing drugs, open label • Control: No • Phase: Phase IIa - preliminary Proof of Concept • Location: Belgium - Research Centre ANIMA, Alken • End Points : Assessment scale scores, Hamilton Depression Rating Scale 17 items, Reduction, Response, Remission • Medication: Exclusion of mood stabilisers, antipsychotics (typical and atypical) and other antidepressants
Patients have a major depressive disorder according to DSM-IV criteria, with or without a chronic course and a treatment refractory state towards another SSRI than citalopram. […]
Adverse events are assessed on: body as a whole, central and peripheral nervous system, gastrointestinal, musculoskeletal, psychiatric, respiratory, skin and appendages, vascular and urinary, taking into account discontinued treatment due to adverse events. Laboratory parameters, ECG, bodyweight and vital signs are not measured since this is a naturalistic study.

[2] = test system: adrenergic receptors α-1A, α-2A, α-2B, α-2C, β-1, β-2, and the histamine receptor H1; assay: receptor binding affinity (Table 1); conditions: β-1, β-2 and histamine receptor H1
D4 receptor = target: T1, D4 receptor (Homo sapiens, UniProt P21917); assay: receptor binding affinity (pKi); conditions: read-out: pKi value towards the D4 receptor (converted)
T1 sequence (P21917 1-419): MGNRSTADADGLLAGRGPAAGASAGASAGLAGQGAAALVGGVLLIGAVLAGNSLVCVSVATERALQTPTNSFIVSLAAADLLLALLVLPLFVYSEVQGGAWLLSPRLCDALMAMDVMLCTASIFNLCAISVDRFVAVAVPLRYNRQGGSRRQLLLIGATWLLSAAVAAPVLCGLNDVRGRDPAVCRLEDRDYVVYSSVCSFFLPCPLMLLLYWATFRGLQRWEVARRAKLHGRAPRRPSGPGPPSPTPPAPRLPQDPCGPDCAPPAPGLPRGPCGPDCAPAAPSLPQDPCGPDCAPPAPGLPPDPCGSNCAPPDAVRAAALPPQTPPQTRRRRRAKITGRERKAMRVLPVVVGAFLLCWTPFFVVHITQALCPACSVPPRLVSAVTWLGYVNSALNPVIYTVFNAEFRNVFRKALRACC

other dopamine receptors = assay: receptor binding affinity (pKi)
other 5HT receptors = assay: receptor binding affinity (pKi)
patients with OCD = assay: semi-naturalistic open label study of combo pipamperone-citalopram in obsessive-compulsive disorder (Example 4); assay type: in vivo; conditions: pipamperone 16-19 mg/day + citalopram 30-60 mg/day
Procedure: This semi-naturalistic open label study investigates the efficacy and tolerability of the combo pipamperone - citalopram in the treatment of patients with OCD.
Characteristics: patients have an obsessive-compulsive disorder according to DSM-IV criteria, with or without a chronic course and a treatment refractory state towards another SSRI than citalopram.
Treatment with the combo pipamperone-citalopram (n = 7). Treatment with fluvoxamine (controlled release) mean 271 mg/day (n = 253) is according to Hollander et al. (2003).
The intention-to-treat/last-observation-carried-forward analysis is evaluated relating to therapeutic efficacy according Y-BOCS total score, obsession and compulsion scores.

- affinity for other receptors [2]: low or absence of affinity
- Ki (D4 receptor): ≤ 0.01 µM
- pKi value towards other dopamine receptors (other dopamine receptors): less than 8
- pKi value towards other 5HT receptors (other 5HT receptors): less than 8
SMILES: NC(=O)C1(N2CCCCC2)CCN(CCCC(=O)c2ccc(F)cc2)CC1 [pipamperone, 1'-[3-(p-Fluorobenzoyl)propyl]-[1,4'-bipiperidine]-4'-carboxamide]
- sedative effects ([1]; major depression study, pipamperone 16-19 mg/day): lacking
- boosting effect on a SSRI (citalopram) ([1]; major depression, pipamperone 16-19 mg/day + citalopram 10-20 mg/day, PO, 8 weeks): apparent
- sedative effects (patients with OCD): lacking
